Molecules are shown by their SMILES.

The conditions of the first series: acidic group.
`O=C(O)C(c1ccc(-c2ccccc2)cc1)C(O)C1CCCCC1` (centres undefined) came in with a pKa of 4.19.

For the molecule `N#Cc1ccc(C(=O)O)cc1`, the pKa was 3.53.

`CC(C)=CCC1C(=O)C(CC=C(C)C)(CC=C(C)C)C(O)(C(=O)[O-])C1=O` (centres undefined) returned a pKa of 9.7.

`N#Cc1ncnc2nc[nH]c12` registered a pKa of 6.88.

Molecule `Oc1nc(C(F)(F)F)nc2[nH+]c[nH]c12` had a pKa of 1.1.

For the molecule `CCC1C(=O)C(CC)C1=O` (centres undefined), the pKa amounted to 3.5.

The molecule `Cc1ccc2cccc(O)c2n1` had a pKa of 10.1.

`O=C(O)C#CSc1ccccc1`: the pKa is 2.11.

Regarding `O=C([O-])[C@H](NCC[NH2+][C@@H](C(=O)[O-])c1ccccc1O)c1ccccc1O`, the pKa came to 8.79.

`O=C(O)CCC(=O)NOCc1ccccc1` displayed a pKa of 4.6.

`Nc1ccc(S(=O)(=O)Nc2nccs2)c(Cl)c1` came in with a pKa of 6.95.

Molecule `Nc1nnnn1CC(=O)O` displayed a pKa of 2.38.

Turning to `[O-]c1ncc2[nH]cnc2n1`, the pKa was 11.9.

`Cc1cc(C)c(O)c([N+](=O)[O-])c1` displayed a pKa of 7.98.

`CCCCCC(=O)CC(C)=O` returned a pKa of 9.2.

In turn, `CC/C(=N/O)C(C)=O` yielded a pKa of 9.38.

`O=C(O)c1ccccc1Br` showed a pKa of 2.93.

The molecule `CN(C)C(=O)CS` had a pKa of 8.1.

As to `CCCSCC(=O)O`, the pKa amounted to 3.77.

Turning to `Cc1ccc(S(=O)(=O)NCCC(=[NH2+])N(C)C)cc1`, the pKa was determined as 9.84.

`Cc1ccc(C(=O)c2cc[nH]n2)cc1`: the pKa turned out to be 12.

Molecule `Cc1n[nH]c(C)c1[N+](=O)[O-]` registered a pKa of 10.3.

`O=C(O)c1ccco1` registered a pKa of 3.18.

The molecule `CP(C)(=O)O` registered a pKa of 3.08.

Molecule `[NH3+]CCc1ccc(O)cc1` returned a pKa of 9.42.

With `O=C(Oc1ccc([N+](=O)[O-])cc1)C1c2ccccc2-c2ccccc21`, the pKa amounted to 9.9.

`[NH3+]C(Cc1ccccc1)C(=O)O` (centres undefined): the pKa amounted to 2.3.

For the molecule `CCc1cc(C(C)C)c(O)cc1C`, the pKa is 10.9.

The molecule `C/C(=C\Cl)C(=O)O` returned a pKa of 4.03.

`CCN(CC)C(=S)NC(=O)c1cccc(F)c1`: the pKa came to 8.21.

For the molecule `O/N=C1\CCCc2nonc21`, the pKa worked out at 8.78.

In the case of `O=[N+]([O-])c1cccc(-c2nnn[nH]2)c1`, the pKa was found to be 3.25.

`NC(=O)C(N)Cc1ccccc1` (centres undefined) displayed a pKa of 7.33.

As for `N#CC(C#N)C(c1ccccc1)C(C#N)C#N`, the pKa was determined as 6.19.

On to `CCCOC(=S)NC(C)=O`, for which the pKa amounted to 9.34.

As for `CC1C(=O)CC(C)(C)CC1=O`, the pKa is 5.6.

For `Cc1c(Cn2cc[nH+]c2)sc2cc(C(=O)O)ccc12`, the pKa was 3.59.

As for `COC(=O)C1=C(C(=O)OC)CC=C1`, the pKa worked out at 5.

For `Cc1ccc(O)c(Cc2cc([N+](=O)[O-])ccc2O)c1`, the pKa stood at 6.34.

For the molecule `CN(O)C(=O)C(C)(C)C`, the pKa was found to be 9.94.

Molecule `[NH3+]CCCCCCCCCCC(=O)O` showed a pKa of 4.62.

In turn, `O=c1ccn([C@@H]2C[C@@H](O)[C@H](CO)O2)c(=O)[nH]1` returned a pKa of 9.3.

`C[NH+](C)CCCCCCNC(=O)/C=N/O` displayed a pKa of 8.93.

Take `CCN(CC)S(=O)(=O)c1ccsc1C(=O)O`: the pKa stood at 2.77.

With `Nc1ccc(-c2ccc(/N=C/c3ccc(O)cc3)cc2)cc1`, the pKa stood at 9.5.

Molecule `Oc1cnc2ccccc2c1` displayed a pKa of 8.06.

`C/C(=C\c1cc(C(C)(C)C)c(O)c(C(C)(C)C)c1)C(=O)[O-]` displayed a pKa of 11.5.

Molecule `Cc1cc(=O)oc2cccc(O)c12` registered a pKa of 8.26.

In turn, `OB(O)c1ccccc1` had a pKa of 8.74.

The molecule `On1nnc2ccc(Cl)cc21` yielded a pKa of 4.15.

Molecule `OCC(S)C[S-]` (centres undefined) registered a pKa of 10.6.

`O=C(/C(=N/O)c1ccccc1)c1ccccc1` had a pKa of 8.8.

In turn, `N#CC(C#N)=NNc1ccccc1` showed a pKa of 6.55.

Molecule `O=C(O)C[C@]1(O)C[C@H]2C=C[C@@H]1C2` came in with a pKa of 4.36.

For the molecule `CC(P)C(=O)O` (centres undefined), the pKa was determined as 4.15.

On to `CN(C)c1ccc(NC=S)cc1`, for which the pKa came to 12.

Molecule `C=C(F)C(=O)O` displayed a pKa of 2.55.

On to `Cn1cnc(C(=O)O)c1C(=O)O`, for which the pKa is -0.56.

Consider `Cc1ccc([N+](C)(C)O)cc1`, for which the pKa came to 4.32.

For the molecule `CC(C)(C)CCC(=O)O`, the pKa worked out at 4.83.

Molecule `O=C(C[n+]1ccccc1)c1ccccc1` yielded a pKa of 10.9.

`CC(=O)CC(N)=O` had a pKa of 10.4.

As to `CC/C(=N/O)NO`, the pKa amounted to 10.7.

`O=C(O)c1c(Br)cccc1[N+](=O)[O-]`: the pKa was determined as 1.37.

`CC(/N=N/O)c1ccccc1` (centres undefined) returned a pKa of 8.32.

For `N#CC(=C(O)O)c1ccccc1`, the pKa worked out at 0.99.

`O=C([O-])[C@@H]1O[C@H](Oc2ccc3[nH+]ccc(O)c3c2)[C@@H](O)[C@H](O)[C@H]1O` showed a pKa of 3.7.

The same series, now with this note: basic group.
For `O=C([O-])CCCCCN1CCCCC1`, the pKa was 10.5.

`CCNC(N)=O`: the pKa was 1.19.

Take `Cc1ccc2cccc(O)c2n1`: the pKa was determined as 5.63.

In turn, `NCc1ccc(F)c([O-])c1` registered a pKa of 10.

For the molecule `O=C([O-])[C@H](NCC[NH2+][C@@H](C(=O)[O-])c1ccccc1O)c1ccccc1O`, the pKa turned out to be 6.33.

The molecule `CCN(C)CC` had a pKa of 10.4.

The molecule `[O-]c1ncc2[nH]cnc2n1` showed a pKa of 8.43.

As for `NC1CCc2ccccc2C1` (centres undefined), the pKa is 9.97.

Regarding `C=CC(=O)OCCN(C)C`, the pKa was found to be 7.9.

In turn, `Cc1ccncc1C` had a pKa of 6.53.

Turning to `Nc1ccc(-c2nc3ccccc3s2)cc1`, the pKa was determined as 3.

`Nc1nc(N)nc(N)n1` returned a pKa of 5.06.

In the case of `[SH2+]c1ccc2ncccc2c1`, the pKa came to 3.95.

Turning to `c1ccc(-c2cc3cccnc3c3ncccc23)cc1`, the pKa is 4.72.

`CCN(CC)CCCCNc1cc[nH+]c2ccccc12` gave a pKa of 8.94.

For `NCCCCc1ccncc1`, the pKa amounted to 10.2.

Consider `CN(C)c1ccc([N+](C)(C)C)cc1`, for which the pKa came to 2.64.

The molecule `CC(C)(C)C1=CC(=C2C=CC=CC=C2)C=C(C(C)(C)C)C1=O` had a pKa of 4.48.

In the case of `CCS(=O)(=O)c1cc(OC)c(OC)c(C(=O)N[C@@H]2C[C@H]3CC[C@@H](C2)N3Cc2ccccc2)c1`, the pKa came to 8.9.

In turn, `c1c(CN2CCNCC[NH2+]CC2)n[nH]c1CN1CCNCC[NH2+]CC1` returned a pKa of 6.8.

In turn, `[NH3+]Cc1cccnc1` showed a pKa of 3.71.

`Cc1n[nH]c(C)c1[N+](=O)[O-]` yielded a pKa of -0.22.

`COc1cccnn1` came in with a pKa of 2.52.

In turn, `NCCCCCc1ccccn1` had a pKa of 10.4.

As for `C[NH+](C)CCCNc1ccnc2ccc([N+](=O)[O-])cc12`, the pKa worked out at 6.99.

Molecule `COc1ccc2c3c1O[C@H]1[C@@H](O)C=C[C@H]4[C@@H](C2)N(CCC#N)CC[C@@]341` registered a pKa of 5.68.

The molecule `O=C(O)c1ccco1` returned a pKa of -0.53.

On to `N/C(CC[NH3+])=N\O`, for which the pKa worked out at 3.75.

For `COC(=O)c1ccc2ncccc2c1`, the pKa is 3.8.

`CCC(C)N(C)C` (centres undefined) had a pKa of 10.4.

`CC1=C(CC(C)NCC(O)c2ccccc2)CCC1(C)C` (centres undefined) gave a pKa of 8.84.

Take `C#CC(C)(C)NC(C)(C)CC`: the pKa amounted to 9.

With `C=CC(=O)OCCN(CC)CC`, the pKa came to 8.55.

The molecule `CCc1ccnc2c1ccc1cccnc12` came in with a pKa of 5.44.

For the molecule `CN(C)CCC/N=C(\c1ccccc1)c1ccccc1O`, the pKa is 9.3.

On to `CCN(CC)C(C)C(=O)Nc1c(C)cccc1C` (centres undefined), for which the pKa is 8.11.

As to `CCOc1ccc(Nc2ccccc2)cc1`, the pKa turned out to be 1.41.

For `C1CCCNCCC1`, the pKa is 10.8.

Take `c1ccc2c(c1)C1CCN2C1` (centres undefined): the pKa was found to be 7.1.

`O=C([O-])C1CSCN1` (centres undefined) displayed a pKa of 6.23.

Molecule `COC(=O)[C@@H](N)Cc1c[nH]cn1` registered a pKa of 7.33.

The molecule `Cc1cccc(/N=N/c2ccc(N(C)C)cc2)c1` came in with a pKa of 2.33.

Turning to `Cc1cc(C)cc(C(=N)c2ccccc2)c1`, the pKa is 6.82.

In the case of `Cc1ccc(N2CCCC(=O)C(O)CCC2)cc1` (centres undefined), the pKa is 3.2.

For the molecule `CCN(CC)C(C)O` (centres undefined), the pKa came out at 10.2.

`CCCCCCCCN(CC(C)O)CC(O)CC` (centres undefined) came in with a pKa of 8.1.

Molecule `Nc1ccc(-c2ccc(/N=C/c3ccc(O)cc3)cc2)cc1` showed a pKa of 6.86.

Molecule `Oc1cnc2ccccc2c1` yielded a pKa of 4.3.

For `Nc1ncccc1C(=O)[O-]`, the pKa stood at 6.59.

In turn, `c1ccc(Oc2cccnc2)cc1` had a pKa of 4.24.

In turn, `C[NH+](C)CCCNc1ccnc2cccc([N+](=O)[O-])c12` registered a pKa of 6.39.

On to `CCOC(=O)N1CCNCC1`, for which the pKa is 8.28.

`OCCc1cnc(P(c2ncc(CCO)[nH]2)c2ncc(CCO)[nH]2)[nH]1` returned a pKa of 7.7.

As for `Cc1cc(C)c2ccc3c(C)cc(C)nc3c2n1`, the pKa turned out to be 6.5.

The molecule `CC[C@]1(O)C[C@@H](C)N[C@H]2CCCC[C@@H]21` displayed a pKa of 9.71.

On to `N#CC(C#N)=NNc1ccccc1`, for which the pKa was -0.82.

Turning to `Nc1ccncc1N`, the pKa worked out at 9.06.

`COc1cccc(/N=C/N(C)C)c1`: the pKa amounted to 8.6.

With `CCCOC(=O)c1ccc(N)cc1`, the pKa worked out at 2.49.

As for `CN(c1ccccc1)C1CCCC1`, the pKa was 6.71.

Consider `N[C@@H]1CCCC[C@@H]1N`, for which the pKa turned out to be 9.84.

Turning to `CN1CCCC1c1ccccc1` (centres undefined), the pKa is 8.8.

Consider `CC(=O)Nc1ccccn1`, for which the pKa amounted to 4.09.

On to `CNCC(C)CNC`, for which the pKa turned out to be 10.6.

`CC(N)CCc1ccc(O)cc1` (centres undefined): the pKa was found to be 9.14.

As to `Cc1cc(-n2nc(C)cc2C)[nH]n1`, the pKa is 2.23.

Consider `C=C(C)C(=O)OCCN(C)C`, for which the pKa stood at 8.06.

In turn, `CCN(CC)CC(=O)NCc1ccccc1` registered a pKa of 8.07.

In the case of `COc1cc(S(C)=O)ccc1-c1nc2ncc(N)cc2[nH]1` (centres undefined), the pKa was 3.9.

As to `CC/C(=N/O)NO`, the pKa amounted to 5.15.

For the molecule `C=C(C)C(=O)OCCNCCCC`, the pKa stood at 9.12.

`Nc1ccnc(N)n1` gave a pKa of 7.26.

Regarding `CO[C@H]1CC=C2CCN3CCC(CO)=C(CCO)[C@]23C1`, the pKa was determined as 8.69.

For `CC(C)N(C(C)C)C(C)C`, the pKa amounted to 11.9.

In turn, `CCCNc1ccccc1` came in with a pKa of 5.12.

`CC(=O)c1ccccc1`: the pKa stood at 18.3.

As to `CC1=C(CC(C)NCC(O)c2ccc(N)cc2)CCC1(C)C` (centres undefined), the pKa was 9.01.

The values above are taken from the pKa sets of Baltruschat and Czodrowski (2020).
